Assays:
PANC-1/IDX-1 cells = experiment: Insulin release into culture medium (RIA), PANC-1 cells transfected with human IDX-1; format: cell-based
Method: Rat (ARIP) and human (PANC-1) ductal cell lines were respectively a gift from Dr. J. M. Egan (National Institute on Aging, Baltimore, Md.) or purchased from ATCC (American Type Culture Collection; Manassas, Va.). ARIP cells were cultured in F12 medium (Gibco-BRL, Gaithersburg; Md.) containing 100 μg/ml penicillin, 50 μg/ml streptomycin and 10% fetal calf serum (FCS; Gibco-BRL) at 37° C. under a humidified condition of 95% air and 5% CO2. PANC-1 cells were cultured in DMEM medium supplemented with antibiotics and FCS, as indicated for F12 medium. Treatment with human GLP-1 (H-6795, Bachem; King of Prussia, Pa.) was carried out using cells grown to 80% of confluence, after washing the cell layer with serum-free medium and a “wash-out” incubation for 6-h with serum free medium. To determine dose response to GLP-1, cells were cultured with fresh serum-free medium containing increasing concentration of GLP-1 (0.1, 1, 10, 20 nM), or vehicle alone. At the completion of the experiment, media and cells were collected. To determine the time course of response, cells were cultured in serum-free medium with GLP-1 (10 nM) for 0, 12, 24, 48, 72 or 96 h. Control dishes were cultured with vehicle alone, or with the peptide receptor antagonist of GLP-1, Exendin-9 (100 nM) for 72 h (gift Dr. J. M. Egan). The glucose concentration in the culture medium was 12 mM for both cell lines.
PANC-1 cells were transfected with a pcDNA3 construct (Invitrogen; Carlsbad, Calif.) harboring the wild-type full-length IDX-1 cDNA using LipoTAXI (Catalog N. 204110; Mammalian Transfection Kit, Stratagene; La Jolla, Calif.). Control cells were transfected with the vector alone. The selection of positive (i.e. transfected) cells was carried out by culturing the cells in the presence of 400 μg/ml of G418 sulfate (GN-04, Omega; Tarzana, Calif.).
PANC-1 (parental, IDX-1-transfected, and neomycin-transfected) cells and ARIP (only parental) cells were plated at density of 10^6 cells/well in a 6 well plate. Once the cells reached 80% of confluence, they were washed with serum-free medium containing 12 mM glucose and exposed to fresh serum-free medium for increasing length of time (0, 12, 24, 48, 72, 96 h) in the presence of various concentrations of GLP-1 (0.1, 1, 10, 20 nM) or vehicle. Glucose-dependent insulin secretion was evaluated by culturing the cells in the presence of a determined concentration of GLP-1 (10 nM for 72 h) with increasing concentration of glucose in the culture medium ([…]). Insulin released into the medium was measured by RIA (Linco Research Inc.; St. Charles, Mass.). Total insulin accumulation in the culture medium was then normalized for total cellular protein content per each Individual cultures.
Total cellular protein content was measured by utilizing the Bradford method (Bio-Rad; Richmond, Calif.). The amount of proteins measured was used as a correction factor for determining the relative amount of medium to be assayed for each individual RIA for insulin.

ARIP cells = experiment: Flow cytometric (FACS) analysis for insulin, ARIP cells; format: cell-based, rat; details: GLP-1 10 nM, 72 hours
Method: For fluorescence-activated cells sorting (FACS) analysis, cells were cultured in the presence of GLP-1 (10 nM), or vehicle, for 72 h, then washed with cold PBS (pH 7.4; three times) and incubated overnight, on ice, in PBS with 2% paraformaldehyde. After centrifugation, the cell pellet was resuspended in 400 μl of cold 0.1% Triton diluted in FACS buffer (PBS with 2% FCS). After several centrifugation and washes, the cells were resuspended in the assay buffer with of 10 μl of fluorescent-conjugated insulin antibody (Cat N. FM205, FITC: Chromaprobe, Inc; Mountain View, Calif.), in the presence of 10 μl of blocking antibody (anti-mouse IgG; Organon Teknika-Cappel, West Chester, Pa.). Control samples were treated with PBS, without the primary antibody, and then incubated with an […] FITC-conjugated control antibody (murine IgG; Chromaprobe Inc., Mountain View, Calif.). Flow cytometric analysis was performed with a FACScan[R] cytometer, using the LYSYS II program, and by fluorescence microscopy, as is well known in the art. See, e.g., E. Elstner, M. Linker-Israeli, J. Le, T. Umiel, P. Michl, J. W. Said, L. Binderup, J. C. […]

ARIP and PANC-1 cells = experiment: GLP-1 receptor (GLP-R) mRNA by cycle-titration RT-PCR; format: cell-based; details: GLP-1 10 nM for 72 h, transfected and non-transfected cells
Method: FIGS. 9A-C show GLP-1 receptor expression in ARIP and PANC-1 cells. ARIP and PANC-1 cells (transfected with human IDX-1, or solely with the neomycin resistant gene) were cultured in serum-free medium and treated with GLP-1 (10 nM), or vehicle alone, for 72 h. RT-PCR for GLP-R and β-actin was performed with a cycle-titration PCR (15, 20, 25, 30 PCR cycles) to assess the relative abundance of GLP-R transcript. Primers for both transcripts were added together in a single PCR-reaction for each individual sample. […] Each experiment was repeated four times, using RNA samples from independent cultures. The blots on the left represent one individual experiment, while the graphs on the right are the average of four independent experiments. The numeric values in the graphs represent the ratio of GLP-R mRNA to actin mRNA.
Treatment with GLP-1 induces the differentiation of ductal epithelial cells into insulin-producing cells. FIG. 2 illustrates a series of cell cultures grown with or without GLP-1 (10 nM) for 72 h. […] Preabsorption of the antibody with an excess of human recombinant insulin prevented the staining of insulin-positive GLP-1 treated cells (data not shown). While treatment with GLP-1 turned the majority of ARIP cells into glucokinase mRNAs, the same PCR conditions as described above were used in the presence of gene-specific primers. […]

## glucagon-like peptide-1 [GLP-1]
PANC-1/IDX-1 cells; GLP-1 10 nM for 72 h
  lowest concentration of glucose required to induce the secretion of insulin: 3 mM
PANC-1/IDX-1 cells; GLP-1 10 nM for 72 h, increasing glucose
  glucose dependence of insulin release: release insulin in a glucose-dependent manner
PANC-1/IDX-1 cells; GLP-1 10 nM, 12 mM glucose
  time of peak insulin secretion: ≤ 48 h
  time of plateau of insulin secretion: 72 h
PANC-1/IDX-1 cells; serum-free medium, 12 mM glucose, 72 h
  concentration of GLP-1 required to induce insulin secretion: 1 nM
ARIP cells
  cells reacting with anti-human insulin antibody: 72.6%
ARIP and PANC-1 cells
  effect on GLP-R mRNA levels: further modest increase (no-statistically significant)
